Results as given in PMC3111206, “Phase I study of PD 0332991, a cyclin-dependent kinase inhibitor, administered in 3-week cycles (Schedule 2/1)” (British Journal of Cancer, 2011).
Where two headings read alike, the source gives them in different places.

What was measured:
[1] = Plasma pharmacokinetics, single dose and steady state; format: in vivo, human; settings: for AUC(0-t): read-out: AUC(0–10), mean (%CV)
Description: Samples for measurement of PK parameters were collected from all patients pre-dose and at intervals up to 10 h post-dose following a single administration (cycle one, day 1) and after repeated dosing (cycle 1, day 8). In cycle 1, three additional blood samples for PK analysis were collected during the 7-day interval without treatment on days 15, 16 and 17. In addition a sample was collected from patients in the expanded MTD cohort 24 h post-dose on cycle 1, day 1. Urine PK assessments (0–10 h post-dose) were carried out on cycle 1, day 1 in patients in the expanded cohort. Blood draws for PK assessment were also obtained at the same time as ECG testing at the projected time-to-first occurrence of the maximum observed plasma concentration (Cmax). Individual area under the concentration–time curve (AUC) values estimated based on dose and individual apparent clearance (CL/F) was obtained from population PK modelling. Additional PK parameters assessed were the time-to-first occurrence of Cmax (Tmax), the apparent volume of distribution during the terminal phase (Vz/F), the terminal elimination half-life (t1/2) and the drug accumulation ratio (Rac).
Pharmacokinetics parameters were determined using non-compartmental analyses (WinNonLin version 4.1; Pharsight, Mountain View, CA, USA). Descriptive statistics for PK parameters were summarised by dosing group, day and cycle.

[2] = tested on: Rb-positive human xenograft models; set-up: method as in Fry et al, 2004; settings: several Rb-positive human xenograft models in vivo; ref Fry et al, 2004; cited from earlier work
[3] = tested on: Rb-positive solid tumours or non-Hodgkin's lymphoma; assay: Tumour response by RECIST v1.0; format: in vivo, human
Description: Tumour measurements derived from computed tomography or magnetic resonance imaging scans were obtained at baseline, after every 2 cycles during the study, and at the end of treatment. Tumour responses were evaluated based on Response Evaluation Criteria in Solid Tumors, version 1.0 ([Therasse et al, 2000]).

[4] = Phase I dose escalation: dose-limiting toxicities, MTD and RP2D (Schedule 2/1); format: in vivo
Text: This was a phase I, dose-finding, open-label, non-comparative study of PD 0332991 in patients with Rb-positive solid tumours or non-Hodgkin's lymphoma (NHL). […] On the basis of the low frequency of Rb expression in small-cell lung cancer and […] ([Lee et al, 1987]; [Yokota et al, 1988]; [Shimizu et al, 1994]), patients with both tumour types were excluded from the trial.
The primary objectives of this study were to establish the safety profile of PD 0332991 given in a 3-week treatment cycle by identifying dose-limiting toxicities (DLTs), the maximum administered dose and the maximum tolerated dose (MTD), and to establish the recommended dose for phase II studies (RP2D). Secondary objectives included characterisation of single-dose and steady-state pharmacokinetics (PKs) of oral PD 0332991 and evaluation of preliminary antitumour activity.
Cohorts of patients received escalating doses of PD 0332991 given daily for 2 weeks, followed by 1 week off treatment (Schedule 2/1). Treatment cycles were repeated until the occurrence of disease progression, unacceptable toxicity or withdrawal of consent.
Three to four evaluable patients were initially enrolled per dose-escalation cohort, and the cohort expanded to six evaluable patients, if a DLT occurred during the first treatment cycle. […] The MTD was defined as the highest dose level for which the incidence of first-cycle DLT was <2/6. Cohorts receiving the MTD were expanded to include a minimum of 12 patients. […]

CC(=O)c1c(C)c2cnc(Nc3ccc(N4CCNCC4)cn3)nc2n(C2CCCC2)c1=O [PD 0332991]
Cmax, mean (%CV) ([1]; human, in vivo, 225 mg): 186 (64) ng ml^−1 | Tmax, median (range) ([1]; human, in vivo, 225 mg): 4.5 (1.0–7.0) h | Cmax ([1]; human, in vivo, 225 mg, Cmax, mean (%CV)): 104 ng/mL | Tmax ([1]; human, in vivo, 225 mg, Tmax, median (range)): 4 h | AUC(0-t) ([1]; human, plasma, oral, 100 mg, plasma, 100 mg QD, Day 1 (n=2 per footnote a)): 333 ng·h/mL | Cmax ([1]; human, plasma, oral, 100 mg, plasma, 100 mg QD, Day 1 (n=3), read-out: Cmax, mean (%CV)): 44 ng/mL | Tmax ([1]; human, plasma, oral, 100 mg, plasma, 100 mg QD, Day 1 (n=3), read-out: Tmax, median (range)): 4 h | AUC(0-t) ([1]; human, plasma, oral, 100 mg, plasma, 100 mg QD, Day 8 (n=2 per footnote a)): 433 ng·h/mL | Cmax ([1]; human, plasma, oral, 100 mg, plasma, 100 mg QD, Day 8 (n=3), read-out: Cmax, mean (%CV)): 58 ng/mL | Tmax ([1]; human, plasma, oral, 100 mg, plasma, 100 mg QD, Day 8 (n=3), read-out: Tmax, median (range)): 4 h | AUC(0-t) ([1]; human, plasma, oral, 150 mg, plasma, 150 mg QD, Day 1 (n=2 per footnote a)): 622 ng·h/mL | Cmax ([1]; human, plasma, oral, 150 mg, plasma, 150 mg QD, Day 1 (n=4), read-out: Cmax, mean (%CV)): 78 ng/mL | Tmax ([1]; human, plasma, oral, 150 mg, plasma, 150 mg QD, Day 1 (n=4), read-out: Tmax, median (range)): 6 h | AUC(0-t) ([1]; human, plasma, oral, 150 mg, plasma, 150 mg QD, Day 8 (n=3)): 1600 ng·h/mL | Cmax ([1]; human, plasma, oral, 150 mg, plasma, 150 mg QD, Day 8 (n=3), read-out: Cmax, mean (%CV)): 194 ng/mL | Tmax ([1]; human, plasma, oral, 150 mg, plasma, 150 mg QD, Day 8 (n=3), read-out: Tmax, median (range)): 7 h | AUC(0-t) ([1]; human, plasma, oral, 200 mg, plasma, 200 mg QD, Day 1 (n=19 per footnote a)): 525 ng·h/mL | Cmax ([1]; human, plasma, oral, 200 mg, plasma, 200 mg QD, Day 1 (n=20), read-out: Cmax, mean (%CV)): 81 ng/mL | Tmax ([1]; human, plasma, oral, 200 mg, plasma, 200 mg QD, Day 1 (n=20), read-out: Tmax, median (range)): 5.7 h | AUC(0-t) ([1]; human, plasma, oral, 200 mg, plasma, 200 mg QD, Day 8 (n=8)): 1400 ng·h/mL | Cmax ([1]; human, plasma, oral, 200 mg, plasma, 200 mg QD, Day 8 (n=8), read-out: Cmax, mean (%CV)): 174 ng/mL | Tmax ([1]; human, plasma, oral, 200 mg, plasma, 200 mg QD, Day 8 (n=8), read-out: Tmax, median (range)): 4 h | Vd/F ([1]; human, plasma, oral, steady state, 200-mg QD cohort, read-out: Vz/F (apparent volume of distribution), mean): 3240 L | half-life ([1]; human, plasma, oral, steady state, 200-mg QD cohort, read-out: t1/2 (terminal elimination half-life), mean (converted)): 26.7 h | CL/F, mean ([1]; steady state, 200-mg QD cohort): 88.5 l per hour | Effect on tumour growth [2]: significantly reduces tumour growth and leads to tumour regression | Patients with partial response (PR) ([3]; 31 evaluable patients, testicular cancer, 200 mg QD, Schedule 2/1): one | Duration of stable disease ([3]; one patient with angiomyxoma, 200-mg QD cohort): 19 cycles | Duration of stable disease ([3]; one patient with liposarcoma, 100-mg QD cohort): 11 cycles | Duration of stable disease ([3]; one patient with liposarcoma, 225-mg QD cohort): ≥ 23 cycles | Dose recommended for phase II study ([4]; human, in vivo): 200 mg QD | Maximum administered dose ([4]; human, in vivo, po): 225 mg QD | Maximum tolerated dose (MTD) ([4]; oral, Schedule 2/1 (14 days on, 7 days off)): 200 mg QD
